Legend:
[1] = tested on: CHO cells; assay: Cell signaling analysis: tyrosine phosphorylation in CHO cells; type: cell-based, Chinese Hamster; details: for intracellular tyrosine phosphorylation: CHO cells, data not shown
Method: CHO cultures were grown as described above for PC12 cells. The cultures were divided into two groups and different compounds were added, followed by a period of incubation of from 1 to 30 minutes. Thus one CHO culture was incubated with 5 μM of 1,3-cyclic propandiol phosphate-2-methylamino at 37° C., the control being a similar CHO culture incubated with 1,3-cyclic glycerphosphate under the same conditions. […] In particular it was detected in a series of proteins with molecular weight of ≈35 kDa, ≈45 kDa, ≈60-70 kDa. as shown in FIG. 1.

[2] = tested on: PC12 cells; assay: Induction of neuronal outgrowth / neuronal differentiation in PC-12 cells; type: cell-based, rat; details: for neuronal differentiation / axonal outgrowth: data not shown; for neural outgrowth: 5 μM, after 8 days, microscope, FIG. 2
Method: (§1) In the presence of nerve growth factor these cells differentiate to neuronal cells. PC12 cells originated from rat pheochromocytoma were grown as monolayers in Eagle's medium (EM) supplemented with 10% fetal calf serum, 50 μg/ml gentamicin and 5 mM glutamine, in a humidified incubator buffered with 5% CO2, at 37° C. The culture medium is changed every four days and the cells are passaged every eight days and performed confluent monolayers (1.5×10^6 in a 10 cm plate or 10^5 cells per well in 24 wells plate). PC12 cells are originally round cells which, following several days in the presence of nerve growth factor (NGF) process nerves. Upon withdrawal of the NGF, the nerves retract and a process of apoptosis is initiated in the cells.
PC12 cells were grown in culture as explained above. The cells were divided into two groups and different compounds were added. To the first were added 5 μM 1,3-cyclic propandiol phosphate-5-caproylamido, while as a control to the second portion was added NGF. After a period of 8 days the two groups of PC12 cells were inspected by microscope.

[3] = tested on: Rat hippocampal neurons; assay: Neuronal morphology of cultured hippocampal neurons (stage 3); type: cell-based; details: three days
Method: Rat hippocampal neurons were cultured at low density in defined medium as described previously (Brann et al., 2002, J Bio Chem 277(12): 9812-9818), with slight modifications. Briefly, the dissected hippocampi of embryonic day 18 rats were dissociated by trypsinization (0.25% w/v, for 15 min at 37° C.). The tissue was washed in Mg^2+/Ca^2+-free Hanks' balanced salt solution (Invitrogen) and dissociated by repeated passage through a constricted Pasteur pipette. Cells were plated in minimal essential medium with 10% horse serum at a density of 25,000 cells per 13-mm glass cover slips that had been precoated with poly-L-lysine (1 mg/ml). After 2-4 hr, cover slips were transferred into 24-well plates (Nunc), containing B27 supplemented Neurobasal medium (Brewer, G. et al., 1993, J Neurosci Res 35: 567-576), and cultures were maintained in this defined medium throughout the experiment.
For morphological analysis, cover slips were removed from the 24-well plates on the 3rd day of culture. Neurons were fixed in 1% (v/v) glutaraldehyde in phosphate-buffered-saline for 20 min at 37° C., and mounted for microscopic examination in 50% glycerol in phosphate-buffered-saline. Neurons were examined by phase contrast microscopy using an Achroplan 32x/0.4 n.a. phase 2 objective of a Zeiss Axiovert 35 microscope. Neuronal growth was analyzed based on established developmental criteria of cultured hippocampal neurons (Schwarz et al., 1995, J Bio Chem 270(18): 10990-10998; Brann et al., 1999, J Neurosci 19(19): 8199-8206) as follows: (i) Only neurons at stage 3 were analyzed in this study. […] (iii) Only those cells in which the whole axon plexus could be unambiguously delineated were measured. (iv) The number of axonal branch points per cell were measured. […]
Images of neurons were acquired using NIH image (version 1.62) software. The analyze mode was set to a proportional ratio scale of pixel to μm, the outline of the neuron was copied using the freehand line tool, and the line length measured and analyzed according to the morphological criteria outlined above. […]

[4] = tested on: PC12 cells; assay: Rescue of PC12 cells from NGF deprivation (nerve rescue); type: cell-based, rat; details: data not shown
Method: as §1
Similar effects were observed (data not shown) for the following compounds. […] 2-Benzyloxy 1,3-chloropropanediol phosphate (Example 16 above) was dissolved in ethanol and from there introduced by 1:1000 dilution into PC12 cultures.

| Compound | intracellular tyrosine phosphorylation [1] | neuronal differentiation / axonal outgrowth [2] | also measured |
| --- | --- | --- | --- |
| CCNP1(=O)OCCCO1 [Example 14, 1,3-cyclic propanediol N-ethyl phosphoamidate] | promoted tyrosine phosphorylation | did not induce neuronal differentiation |  |
| NGF: nerve growth factor, in whose presence PC12 cells differentiate to neuronal cells |  |  | neural outgrowth [2]: did not exhibit such promotion of neural outgrowth |
| CNC1COP(=O)(O)OC1 (stereo not shown) [Example 7, 1,3-cyclic propandiol phosphate-2-methylamino] |  |  | exposure time after which augmented tyrosine phosphorylation was noticed ([1]; CHO culture, 5 μM, 37° C.): ≤ 1 min; tyrosine phosphorylation of proteins (≈35 kDa, ≈45 kDa, ≈60-70 kDa) ([1]; CHO culture, 5 μM, 37° C., incubation 1 to 30 minutes, control 1,3-cyclic glycerphosphate, FIG. 1): Augmented tyrosine phosphorylation |
| CCCCCC(=O)NC1COP(=O)(O)OC1 (stereo not shown) [Example 4, 1,3-cyclic propandiol phosphate-5-caproylamido] |  |  | neural outgrowth [2]: promoted neural outgrowth |
| 2-caproimido 1,3-chloropropanediol phosphate [Example 17] | induced tyrosine phosphorylation | neuronal differentiation |  |
| O=P1(O)OCCCO1 [Example 9, 1,3-cyclic propanediol phosphate] |  | triggering axonal outgrowth | total elongation of axon plexus compared to non-treated cells ([3]; pyramidal rat embryo hippocampal cells, 5 μM, FIG. 3): 32%; increase in length of the longest axon (main axon) compared to non-treated cells ([3]; pyramidal rat embryo hippocampal cells, 5 μM, FIG. 4): about 20%; increase in axonal branch points per cell compared with non-treated cells ([3]; rat embryo hippocampal cells, FIG. 5): about 47% |
| CC1COP(=O)(O)OC1 (stereo not shown) [Example 10, 2-methyl 1,3-cyclic propanediol phosphate] |  | triggering axonal outgrowth |  |
| NP1(=O)OCCCO1 [Example 13, 1,3-cyclic propanediol phosphoamidate] | capable of inducing tyrosine phosphorylation | did not induce neuronal differentiation | rescue from NGF deprivation (nerve rescue) [4]: did rescue them from NGF deprivation |
